According to US9340577B2, “HLA binding motifs and peptides and their uses” (priority 1992, dated 2016):
No end group written: not given here.

Experiments:
Assay in all cases: biochemical
Type in all cases: binding
A31 (A*3101) = A31 (A*3101) (Homo sapiens, UniProt P04439, A270S/D185E/E176V/E277Q/F33T/G231S/G80R/H175R/I121M/I218V/I322F/K168Q/L300P/L318F/M331R/P217A/Q94H/R138Q/T323A/T345S/T97I/V358M)
A*3301 = A*3301 (Homo sapiens, UniProt P04439, A270S/D185E/E176V/E277Q/E87N/F33T/G231S/H175R/I121M/I218V/I322F/K168Q/K210R/L300P/L318F/M331R/P217A/Q86R/Q94H/R138Q/T323A/T345S/T97I/V358M/Y195H)
A*3002 = A*3002 (Homo sapiens, UniProt P04439, D101N/D140H/D185E/E176R/F33S/G80R/H175R/K168Q/Q94H/R138E/R41S/V100E)
HLA-A1 (A*0101) = HLA-A1 (A*0101) (Homo sapiens, UniProt P04439, A114D/A174V/A182V/D101N/D185E/E176A/E190D/L180R/Q94H/R68K/S129P/T187R/V100A/V91M/W191G)
HLA-A11 (A*1101) = HLA-A11 (A*1101) (Homo sapiens, UniProt P04439, A114D/D185E/E176A/F33Y/L180Q/S129P/T187R)
A*6801 = A*6801 (Homo sapiens, UniProt P04439, A269V/D185E/E176V/E277Q/E87N/F33Y/G231S/I121M/I166T/I218V/L180W/L300P/L318F/N151K/P208A/P217A/Q86R/R169H/T345S)
A*2902 = A*2902 (Homo sapiens, UniProt P04439, A270S/D101N/D185E/E176V/E277Q/E87Q/F33T/G231S/H175R/I121M/I218V/I322F/K168Q/L300P/L318F/M331R/P208A/P217A/Q86L/T323A/T345S/V100A/V358M)
A*2601 = A*2601 (Homo sapiens, UniProt P04439, A114D/A173T/A270S/D101N/D185E/E277Q/E87N/F33Y/G231S/I121R/I218V/K168Q/L180W/L300P/L318F/P208A/P217A/Q86R/Q94H/R138Q/S129P/T187R/T323A/T345S/V100A/V358M)

Chain of A*3002 (P04439 whole entry, looked up, the tested form may be a part, stated change not applied): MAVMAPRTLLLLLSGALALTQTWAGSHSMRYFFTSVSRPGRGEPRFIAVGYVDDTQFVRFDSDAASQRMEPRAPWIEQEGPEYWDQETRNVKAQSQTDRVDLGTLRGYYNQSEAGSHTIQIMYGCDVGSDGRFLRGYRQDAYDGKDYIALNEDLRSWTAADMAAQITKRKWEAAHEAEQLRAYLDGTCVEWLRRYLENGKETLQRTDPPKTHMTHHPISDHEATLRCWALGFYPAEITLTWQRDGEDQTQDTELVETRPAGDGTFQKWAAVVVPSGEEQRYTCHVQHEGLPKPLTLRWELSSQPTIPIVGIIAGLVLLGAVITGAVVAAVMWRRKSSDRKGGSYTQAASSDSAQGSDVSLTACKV

| Compound | IC50 (A31 (A*3101)) [µM] | IC50 (A*3301) [µM] | IC50 (A*3002) [nM] | IC50 (HLA-A1 (A*0101)) [nM] | IC50 (HLA-A11 (A*1101)) [nM] | IC50 (A*6801) [µM] | IC50 (A*2902) [nM] | IC50 (A*2601) [nM] |
| --- | --- | --- | --- | --- | --- | --- | --- | --- |
| CC(C)C[C@H](NC(=O)[C@H](CO)NC(=O)[C@@H](N)CCCNC(=N)N)C(=O)N[C@@H](Cc1ccc(O)cc1)C(=O)N[C@@H](CC(N)=O)C(=O)N[C@H](C(=O)N[C@H](C(=O)N[C@@H](C)C(=O)N[C@H](C(=O)N[C@@H](CC(C)C)C(=O)N[C@@H](Cc1ccc(O)cc1)C(=O)O)[C@@H](C)O)C(C)C)[C@@H](C)O [Peptide 1595.06] | 9.27 | > 20 | 1.2 | 221 | 148 | > 20 | 750 | – |
| CC[C@H](C)[C@H](NC(=O)[C@H](CO)NC(=O)[C@@H](NC(=O)[C@@H]1CCCN1C(=O)[C@H](CO)NC(=O)[C@H](Cc1ccc(O)cc1)NC(=O)[C@H](CCSC)NC(=O)[C@@H](N)CCCNC(=N)N)C(C)C)C(=O)N[C@@H](CC(C)C)C(=O)O [Peptide 1605.07] | – | – | 44 | > 20000 | – | – | > 20000 | > 20000 |
| CQDKILEHY [Peptide 1580.23] | – | – | 2600 | 55 | – | – | > 20000 | > 20000 |
| DLADQLIHLY [Peptide 9015.0184] | – | – | – | 958 | – | – | 9790 | 6.2 |
| DLDDQLIHLY [Peptide 9018.0022] | – | – | 2.7 | 4.9 | – | – | 3.7 | 38 |
| DTADQLIHLY [Peptide 9018.0021] | – | – | 13 | 3.6 | – | – | 30 | 3.2 |
| EISNYTDIIY [Peptide 9015.0158] | – | – | 2900 | 6020 | – | – | > 20000 | 59 |
| EISNYTDTIY [Peptide 9015.0157] | – | – | 7050 | 2340 | – | – | > 20000 | 32 |
| ETKKGKAGY [Peptide 9015.0024] | – | – | 2100 | > 20000 | – | – | > 20000 | 15 |
| ETKLGKAGY [Peptide 9015.0023] | – | – | 3900 | > 20000 | – | – | > 20000 | 21 |
| ETPGIRYQY [Peptide 9015.0017] | – | – | 2300 | 9210 | – | – | > 20000 | 25 |
| ETWETWWMDY [Peptide 9015.0168] | – | – | 601 | 91 | – | – | 5120 | 2.9 |
| ETWETWWTDY [Peptide 9015.0169] | – | – | 8650 | 955 | – | – | 11800 | 2.3 |
| FGEMVQWAY [Peptide 1580.13] | – | – | 249 | 318 | – | – | 81 | > 20000 |
| GLADQLIHLY [Peptide 9015.0185] | – | – | 9.2 | 5520 | – | – | – | 426 |
| GLDDQLIHLY [Peptide 9018.0024] | – | – | 56 | 11 | – | – | 432 | 1420 |
| GTADQLIHLY [Peptide 9018.0023] | – | – | 2 | 26 | – | – | – | 68 |
| GTDCNGWFY [Peptide 1593.01] | – | – | 330 | 40 | – | – | 73 | 318 |
| GTEELRSLY [Peptide 9015.0010] | – | – | 51 | – | – | – | 4830 | 666 |
| GYADQLIHLY [Peptide 9018.0025] | – | – | 1.2 | 109 | – | – | 42 | 4400 |

| Compound | IC50 (A31 (A*3101)) [µM] | IC50 (A*3301) [µM] | IC50 (A*3002) [nM] | IC50 (HLA-A1 (A*0101)) [nM] | IC50 (HLA-A11 (A*1101)) [nM] | IC50 (A*6801) [µM] | IC50 (A*2902) [nM] | IC50 (A*2601) [nM] |
| --- | --- | --- | --- | --- | --- | --- | --- | --- |
| GYFPDWQNY [Peptide 1605.15] | – | – | 48 | > 20000 | – | – | 659 | > 20000 |
| HMARELHPEY [Peptide 9015.0176] | – | – | 33 | 618 | – | – | – | 1570 |
| HMDREKHPEY [Peptide 9018.0007] | – | – | 648 | 24 | – | – | > 20000 | 2760 |
| HMDRELHPEY [Peptide 9018.0005] | – | – | 3.6 | 5.1 | – | – | 13 | 6.8 |
| HTAREKHPEY [Peptide 9018.0006] | – | – | – | – | – | – | 4460 | 15 |
| HTARELHPEY [Peptide 9018.0004] | – | – | 9.2 | 8 | – | – | – | 12 |
| HYARELHPEY [Peptide 9018.0035] | – | – | 104 | > 20000 | – | – | 928 | > 20000 |
| ISERILSTY [Peptide 1522.03] | – | – | – | 31 | – | – | > 20000 | 4100 |
| ISNYTDTIY [Peptide 9015.0007] | – | – | 36 | 104 | – | – | 141 | 6100 |
| ISWTYIDDY [Peptide 86.0135] | – | – | 9.4 | – | – | – | 2490 | > 20000 |
| ITDDSDIAY [Peptide 1580.14] | – | – | 3150 | 4.2 | – | – | 2100 | 7470 |
| ITDDSEIAY [Peptide 1593.04] | – | – | 3100 | 20 | – | – | 1440 | 7370 |
| ITKIGPENPY [Peptide 9015.0162] | – | – | – | – | – | – | > 20000 | 985 |
| IVDDSEIAY [Peptide 1580.04] | – | – | 2030 | – | – | – | – | > 20000 |
| KSDIVTLTY [Peptide 1593.07] | – | – | – | 62 | – | – | 3170 | > 20000 |
| KSLVKHHMY [Peptide 9015.0034] | – | – | 7.7 | 10500 | – | – | 2790 | > 20000 |
| KYCWNLLQY [Peptide 1595.08] | – | – | 47 | > 20000 | – | – | 235 | > 20000 |
| LADQLIHLY [Peptide 9015.0038] | – | – | 96 | 4 | – | – | 1330 | 6090 |
| LADQLIHMYY [Peptide 9015.0187] | – | – | 769 | 2.5 | – | – | – | 1780 |
| LFDQLIHMYY [Peptide 9018.0030] | – | – | 65 | – | – | – | 12 | 2410 |

| Compound | IC50 (A31 (A*3101)) [µM] | IC50 (A*3301) [µM] | IC50 (A*3002) [nM] | IC50 (HLA-A1 (A*0101)) [nM] | IC50 (HLA-A11 (A*1101)) [nM] | IC50 (A*6801) [µM] | IC50 (A*2902) [nM] | IC50 (A*2601) [nM] |
| --- | --- | --- | --- | --- | --- | --- | --- | --- |
| LMWKFDSSL [Peptide 1605.16] | – | – | 348 | > 20000 | – | – | 2050 | > 20000 |
| LSDLQDSGY [Peptide 1580.15] | – | – | 4030 | 1.7 | – | – | > 20000 | > 20000 |
| LSDMVQWAY [Peptide 1593.03] | – | – | 161 | 21 | – | – | 504 | 8060 |
| LSEMVQWAY [Peptide 1580.10] | – | – | – | 6.9 | – | – | 633 | > 20000 |
| LTDDSDIAY [Peptide 1580.11] | – | – | 5440 | – | – | – | 4770 | 3920 |
| LTDQLIHMYY [Peptide 9018.0029] | – | – | 197 | 6.3 | – | – | – | 3210 |
| MWKFDSRLAL [Peptide 1605.17] | – | – | – | > 20000 | – | – | > 20000 | > 20000 |
| RQEILDLWVY [Peptide 9015.0174] | – | – | 76 | 7250 | – | – | – | 8720 |
| SFDPIPIHY [Peptide 9015.0002] | – | – | – | 315 | – | – | 27 | 2650 |
| SSNTKANILY [Peptide 1580.08] | – | – | 33 | 290 | – | – | – | 579 |
| STEWRQRRY [Peptide 9018.0017] | – | – | 19 | 7.1 | – | – | – | 371 |
| SYEWRLRRY [Peptide 9018.0036] | – | – | 58 | 3700 | – | – | – | 3220 |
| VMDDSEIAY [Peptide 1580.07] | – | – | 2550 | – | – | – | 95 | > 20000 |
| VSRRANGWFY [Peptide 9015.0179] | – | – | 5.2 | – | – | – | 5580 | > 20000 |
| VTDDSEIAY [Peptide 1593.13] | – | – | 10100 | 22 | – | – | – | > 20000 |
| VTTIVYIEY [Peptide 9018.0041] | – | – | 92 | 3.6 | – | – | – | 448 |
| VWTIVYIEY [Peptide 9015.0089] | – | – | – | 6980 | – | – | – | > 20000 |
| YTPGPGTRY [Peptide 9015.0027] | – | – | 9150 | – | – | – | 1280 | 11 |
| YTPGPGVRY [Peptide 9015.0026] | – | – | 7640 | – | – | – | 1350 | 27 |
